# Results reported in patent US9694003B2, “Formulations and methods for treating high intraocular pressure” (Bridge Pharma, Inc., priority 2015, dated 2017).
# Columns and labels:
# Aspergillus brasiliensis = assay: Preservation challenge test (USP 51), A. brasiliensis; format: cell-based; details: saline formulation, pH 5.0
# Description: (§1) METHOD: The standardized Preservative Challenge Test (U.S. Pharmacopeia 51 Antimicrobial Effectiveness Testing) have been used for tests of self-preservation by norketotifen in concentrations to be used for patients suffering from allergic conjunctivitis and xerophthalmia. USP (51) is a standard test used to determine the antimicrobial effectiveness of test articles and ophthalmic formulations. The present tests were using 150 ml of each formulation and covered the mandatory five organisms: Escherichia coli (fermentative G−), Pseudomonas aeruginosa (non-fermentative G−), Staphylococcus aureus (G+), Aspergillus brasiliensis (mold), and Candida albicans (yeast). The number of inoculated cells was 0.5×10^5 per mL and the incubation temperature was 25° C. for all inoculations. Plating for measuring of recoveries were performed weekly over 4 weeks. The norketotifen formulations were defined as being self-preserving only if the numbers of cell colonies remained constant (fungi) and were declining (bacteria) according to the strictly standardized USP 51 protocol. […] All solutions used in the antimicrobial studies were devoid of added preservatives.
# (§2) USP Criteria for Tested Microorganisms (Category 1)
# (§3) Yeast and Molds (Fungi): No increase from the initial calculated count at 14 or 28 days.
# Pseudomonas aeruginosa = assay: Preservation challenge test (USP 51), P. aeruginosa; format: cell-based; details: saline formulation, pH 5.0
# Description: as §1, §2
# (§4) Bacteria: Not less than a 3.0 logarithmic reduction from the initial count to the count at 14 days, and no increase from the counts at 14 days to the counts at 28 days.
# Staphylococcus aureus = assay: Preservation challenge test (USP 51), S. aureus; format: cell-based; details: saline formulation, pH 5.0
# Description: as §1, §2, §4
# Candida albicans = assay: Preservation challenge test (USP 51), C. albicans; format: cell-based; details: saline formulation, pH 5.0
# Description: as §1, §2, §3
# Escherichia coli = assay: Preservation challenge test (USP 51), E. coli; format: cell-based; details: saline formulation, pH 5.0
# Description: as §1, §2, §4
# [1] = tested on: Escherichia coli, Pseudomonas aeruginosa, Staphylococcus aureus, Aspergillus brasiliensis, Candida albicans; assay: Preservative Challenge Test (USP 51 Antimicrobial Effectiveness Testing), all five organisms; format: cell-based; details: ocular formulation without preservatives, concentrations useful for decreasing IOP
# Description: METHOD: The standardized Preservative Challenge Test (U.S. Pharmacopeia 51 Antimicrobial Effectiveness Testing) have been used for tests of self-preservation by norketotifen in concentrations to be used for patients suffering from allergic conjunctivitis and xerophthalmia. USP (51) is a standard test used to determine the antimicrobial effectiveness of test articles and ophthalmic formulations. The present tests were using 150 ml of each formulation and covered the mandatory five organisms: Escherichia coli (fermentative G−), Pseudomonas aeruginosa (non-fermentative G−), Staphylococcus aureus (G+), Aspergillus brasiliensis (mold), and Candida albicans (yeast). The number of inoculated cells was 0.5×10^5 per mL and the incubation temperature was 25° C. for all inoculations. Plating for measuring of recoveries were performed weekly over 4 weeks. The norketotifen formulations were defined as being self-preserving only if the numbers of cell colonies remained constant (fungi) and were declining (bacteria) according to the strictly standardized USP 51 protocol. Tests were performed at pH 4.0, pH 4.5, pH 5.0 and pH 6.0 and the test articles were dissolved in BSA/water (BSA=bovine serum albumin) containing at least 0.01 percent norketotifen (calculated as free base). […]
# as §3
# cornea = details: topical application to the eye, usual clinical concentration; cited from earlier work
# trabecular mesh = details: within 15 minutes of exposure; cited from earlier work
# macrophages = details: cited from earlier work
# eye = details: cited from earlier work
# [2] = tested on: intraocular pressure in the eyes of rabbits; assay: Intraocular pressure during repeated daily norketotifen eye-drops; format: in vivo; details: 6 rabbits
# Description: (§5) Fifty-two rabbits (26F+26M) were assigned to four groups and were administered repeated daily doses of norketotifen HF solutions by the ocular route, 0.00, 0.0345, 0.0690 and 0.138 wt % for 6 weeks. […] In addition to regular toxicology parameters, ophthalmic parameters and ocular irritation scores were assessed. Blood samples were collected at predetermined time intervals. Plasma sample were analyzed using a validated LCMS-MS method. Plasma pharmacokinetics was calculated.
# In the previously described Ocular Irritation/Toxicity Study (Example 7), intraocular pressure was measured in the eyes of one group of rabbits (3M+3F), before, during and after repeated daily ocular treatment with norketotifen eye-drops. […] The group tested for effects on IOP consisted of 12 eyes and the dose administered was 0.14 wt % and norketotifen was administered daily for 6 weeks, followed by a two-week recovery period without norketotifen administration. Day 42 was the last day of the treatment period and Day 56 was the last day of the recovery period.
# [3] = Solubility of norketotifen HF in non-aqueous carriers; format: physicochemical
# From the text: The intraocular formulations contain a carrier, such as water which is the carrier for an aqueous solution. Non-aqueous carriers include polyethylene glycol (PEG) and/or propylene glycol (PG) can be used in ophthalmic compositions. […] Norketotifen can be dissolved in water in concentrations up to about 0.2 wt %. Exemplary non-aqueous solvents include polyethylene glycol (about 0.1% to about 90%) and propylene glycol (about 0.1% to about 90%).
# rabbits = assay: Ocular irritation/toxicity study, repeated daily ocular doses; format: in vivo; details: repeated daily doses for 6 weeks, highest concentration tested
# Description: as §5
Compound,A. brasil CFU/ml (Aspergillus brasiliensis; Day 0),A. brasil CFU/ml (Aspergillus brasiliensis; Day 14),A. brasil Log Reduc (Aspergillus brasiliensis; Day 14),A. brasil CFU/ml (Aspergillus brasiliensis; Day 28),A. brasil Log Reduc (Aspergillus brasiliensis; Day 28),P. aerugin CFU/ml (Pseudomonas aeruginosa; Day 0),P. aerugin CFU/ml (Pseudomonas aeruginosa; Day 14),P. aerugin Log Reduc (Pseudomonas aeruginosa; Day 14),P. aerugin CFU/ml (Pseudomonas aeruginosa; Day 28),P. aerugin Log Reduc (Pseudomonas aeruginosa; Day 28),S. aureus CFU/ml (Staphylococcus aureus; Day 0),S. aureus CFU/ml (Staphylococcus aureus; Day 14),S. aureus Log Reduc (Staphylococcus aureus; Day 14),S. aureus CFU/ml (Staphylococcus aureus; Day 28),S. aureus Log Reduc (Staphylococcus aureus; Day 28),C. albic CFU/ml (Candida albicans; Day 0),C. albic CFU/ml (Candida albicans; Day 14),C. albic CFU/ml (Candida albicans; Day 28),C. albic Log Reduc (Candida albicans; Day 28),E. coli CFU/ml (Escherichia coli; Day 0),also measured
"CN1CCC(=C2c3ccccc3CC(=O)c3sccc32)CC1.O=C(O)/C=C/C(=O)O [KETO, RS-ketotifen hydrogen fumarate, reference compound]",3.6E+05 CFU/ml,4.8E+05 CFU/ml,None,2.0E+05 CFU/ml,0.25,3.1E+05 CFU/ml,1.5E+4 CFU/ml,1.31,2.3E+05 CFU/ml,0.13,2.0E+06 CFU/ml,3.3E+06 CFU/ml,None,3.6E+06 CFU/ml,None,7.9E+05 CFU/ml,3.0E+03 CFU/ml,1.1E+03 CFU/ml,0.25,1.5E+06 CFU/ml,"E. coli CFU/ml (Escherichia coli; Day 14): 2.5E+04 CFU/ml; E. coli Log Reduc (Escherichia coli; Day 14): 1.78; E. coli CFU/ml (Escherichia coli; Day 28): 2.6E+06 CFU/ml; E. coli Log Reduc (Escherichia coli; Day 28): None; self-preservation test, conclusion [1]: not pass the self-preservation test"
benzalkonium chloride [BAK],,,,,,,,,,,,,,,,,,,,,"concentration causing corneal neurotoxicity (cornea): 0.01%; concentration expressing toxicity that targets the trabecular mesh (trabecular mesh): 0.0001%; concentration that stimulates macrophages, increases phagocytosis and releases cytokines (macrophages): 0.0001%; concentration inducing toxic ocular effects (eye): ≥ 0.0001%"
"O=C(O)C=CC(=O)O.O=C1Cc2ccccc2C(=C2CCNCC2)c2ccsc21 [norketotifen HF, RS-norketotifen hydrogen fumarate]",7.0E+05 CFU/ml,5.75E+02 CFU/ml,3.09,3.10E+02 CFU/ml,3.35,4.7E+05 CFU/ml,<5.0+00 CFU/ml,>4.79,<5.0+00 CFU/ml,>4.97,2.5E+05 CFU/ml,<5.0+00 CFU/ml,>4.70,<5.0+00 CFU/ml,>4.70,6.0E+05 CFU/ml,<5.0+00 CFU/ml,<5.0+00 CFU/ml,>5.08,8.5E+05 CFU/ml,"IOP (mm Hg; ± SD) ([2]; Day 1 (pretest), 12 eyes): 20.4 ± 2.9 mm Hg; IOP (mm Hg; ± SD) ([2]; Day 42 (treatment), 0.14 wt % eye-drops daily for 6 weeks, P = 0.0005 vs. Day 1): 16.5 ± 1.7 mm Hg; IOP (mm Hg; ± SD) ([2]; Day 56 (recovery, two weeks without dosing), P < 0.0001 vs. Day 42): 20.5 ± 1.6 mm Hg; solubility in polyethylene glycol (PEG 300) ([3]; PEG 300): about 0.15 percent w/w; solubility in propylene glycol ([3]; propylene glycol): up to 1.0 wt %; No-Observable-Adverse-Effect-Level (NOAEL) (rabbits): 0.138%; C. albic Log Reduc (Candida albicans; Day 14): >5.08; E. coli CFU/ml (Escherichia coli; Day 14): <5.0+00 CFU/ml; E. coli Log Reduc (Escherichia coli; Day 14): >5.23; E. coli CFU/ml (Escherichia coli; Day 28): <5.0+00 CFU/ml; E. coli Log Reduc (Escherichia coli; Day 28): >5.23"
